Legend:
A3/KAW = test: DLBCL cell line sensitivity to IKE (CellTiter-Glo viability, 24 h); format: cell-based; settings: read-out: cell line sensitivity to IKE (IC50 class)
Description: (§1) DLBCL cells were plated at 10,000 cells per well in white 384-well plates (32 μL per well) in technical duplicates and incubated overnight. The cells were then treated with 8 μL medium containing a two-fold dilution series of vehicle (DMSO), IKE (starting from 100 μM) with or without Fer-1 (starting from 200 μM). After 24 h incubation, 40 μL of 50% CellTiter-Glo (Promega) 50% cell culture medium was added to each well and incubated at room temperature with shaking for 15 min. Luminescence was measured using a Victor X5 plate reader (PerkinElmer). All cell viability data were normalized to the DMSO vehicle condition. Experiments were performed three independent times with different passages for each cell line.

HBL 1 = test: as above; format: cell-based; settings: HBL 1, 24 hours
Description: as §1

KARPAS 422 = test: as above; format: cell-based; settings: KARPAS 422, 24 hours
Description: as §1

LY 7 = test: as above; format: cell-based; settings: LY7; LY 7, 24 hours; read-out: cell line sensitivity to IKE (IC50 class)
Description: as §1

LY 8 = test: as above; format: cell-based; settings: LY 8, 24 hours; read-out: cell line sensitivity to IKE (IC50 class)
Description: as §1

RIVA = test: as above; format: cell-based
Description: as §1

SUDHL 16 = test: as above; format: cell-based; settings: Homo sapiens, SU-DHL-16; SUDHL 16, 24 hours; read-out: cell line sensitivity to IKE (IC50 class)
Description: as §1

SUDHL 2 = test: as above; format: cell-based; settings: Homo sapiens, SU-DHL-2; SUDHL 2, 24 hours; read-out: cell line sensitivity to IKE (IC50 class)
Description: as §1

SUDHL 5 = test: as above; format: cell-based; settings: Homo sapiens, SU-DHL-5; SUDHL 5, 24 hours; read-out: cell line sensitivity to IKE (IC50 class)
Description: as §1

SUDHL 6 = test: as above; format: cell-based; settings: Homo sapiens, SU-DHL-6; SUDHL 6, 24 hours; read-out: cell line sensitivity to IKE (IC50 class)
Description: as §1

SUDHL 7 = test: as above; format: cell-based; settings: SUDHL 7, 24 hours; read-out: cell line sensitivity to IKE (IC50 class)
Description: as §1

SUDHL 8 = test: as above; format: cell-based; settings: SUDHL 8, 24 hours
Description: as §1

SUDHL 9 = test: as above; format: cell-based; settings: SUDHL 9, 24 hours
Description: as §1

U2932 = test: as above; format: cell-based; settings: Homo sapiens; U2932, 24 hours; read-out: cell line sensitivity to IKE (IC50 class)
Description: as §1

U937 = test: as above; format: cell-based; settings: Homo sapiens, U-937; U937, 24 hours; read-out: cell line sensitivity to IKE (IC50 class)
Description: as §1

[1] = tested on: SUDHL6 xenograft tumor tissue; test: Reduced glutathione measurement in mouse tumor tissue after one IKE dose; format: in vivo, NCG mice; settings: single dose IKE 50 mg/kg, starting at 4 hours
[2] = tested on: SUDHL6 xenograft tumor tissue; test: Western blot of caspase-3 in tumor tissue from efficacy study; format: in vivo, NCG mice; settings: treatment for 14 days
Description: 10-25 mg tumor tissue was placed into a 1.5 mL Eppendorf microfuge tube, and the sample was placed on dry ice until use. 20 μL/mg ice cold RIPA buffer with cocktail protease inhibitor (Roche) was added. The tumor tissue was homogenized at speed 5 for 30 sec using Bead Ruptor 4. The sample was centrifuged at 4° C. at 1,600×g for 10 min. The sample was kept on ice and the supernatant used for analysis. Caspase-3 antibody which could recognize both full-length caspase-3 and cleaved caspase-3 was used. α-Tubulin antibody was used as the reference.

[3] = Erastin and IKE solubility measurements (nephelometry); format: physicochemical
Description: Solubility measurement samples were prepared in a 96-well Corning Costar plate with two at 1% and 5% DMSO v/v with a total sample volume of 200 μL in MilliQ water. A BMG Labtech NEPHELOstar nephelometer was used to measure turbidity of the samples with the following parameters per the instrument manufacturer: Gain=80, Laser Focus=2.50 mm, and Laser Intensity=90%. Samples were shaken in the nephelometer by orbital shaking for 3 s prior to the turbidity measurement. Sample values were blanked in the instrument software using the corresponding water and DMSO condition values. Turbidity 4000 NTU Calibration Standard-Formazin (Millipore-Sigma) was used as a positive control for all turbidity measurements. The turbidity of each sample was measured within 20 minutes of initial preparation. After the initial measurement, the sample plates were covered with aluminum sealing film and allowed to sit overnight at room temperature prior to re-measuring.

some cell lines = settings: cited from earlier work

cell line sensitivity to IKE (IC50 class) (KARPAS 422): moderately resistant | IC50 (SUDHL 16): < 0.1 µM | IC50 (SUDHL 2): < 0.1 µM | IC50 (SUDHL 5): < 0.1 µM | IC50 (SUDHL 6): < 0.1 µM | IC50 (SUDHL 7): > 10 µM | cell line sensitivity to IKE (IC50 class) (SUDHL 8): moderately resistant | cell line sensitivity to IKE (IC50 class) (SUDHL 9): moderately resistant | IC50 (U937): > 10 µM
Compound: CC(C)Oc1ccc(C(=O)Cn2ccnc2)cc1-n1c(CN2CCN(C(=O)COc3ccc(Cl)cc3)CC2)nc2ccccc2c1=O [IKE, Imidazole ketone erastin]
IC50 (A3/KAW): > 10 µM | cell line sensitivity to IKE (IC50 class) (HBL 1): moderately resistant | IC50 (LY 7): > 10 µM | IC50 (LY 8): < 0.1 µM | cell line sensitivity to IKE (IC50 class) (RIVA): moderately resistant | IC50 (U2932): > 10 µM | GSH depletion in tumor tissue [1]: over 50% | cleaved-caspase 3 in tumor tissue (western blot) [2]: no cleaved-caspase 3 increase | water solubility (in words) [3]: soluble under acidic aqueous conditions, but not to the same degree under neutral aqueous conditions | potency improvement compared with erastin (some cell lines): > 100 ×
